Laboratory results reported in PubChem BioAssay (NCI).
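Values below derive from 48-hour exposures of cells grown in 96-well plates, with endpoints linearly interpolated between the two concentrations bracketing the appropriate inhibition level. TGI denotes the concentration required for complete inhibition of growth.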

Experiments:
Experiment in all cases: inhibition of tumour cell growth, NCI panel, 48 h
UACC-62 melanoma = tested on: UACC-62 melanoma
SNB-19 CNS = tested on: SNB-19 CNS
CCRF-CEM leukemia = tested on: CCRF-CEM leukemia
IGROV1 ovarian = tested on: IGROV1 ovarian
LOX IMVI melanoma = tested on: LOX IMVI melanoma
MALME-3M melanoma = tested on: MALME-3M melanoma
EKVX NSCLC = tested on: EKVX NSCLC
SK-MEL-2 melanoma = tested on: SK-MEL-2 melanoma
OVCAR-5 ovarian = tested on: OVCAR-5 ovarian
MOLT-4 leukemia = tested on: MOLT-4 leukemia
ACHN renal = tested on: ACHN renal
SF-295 CNS = tested on: SF-295 CNS
SR leukemia = tested on: SR leukemia
SF-268 CNS = tested on: SF-268 CNS
SK-MEL-5 melanoma = tested on: SK-MEL-5 melanoma
NCI-H23 lung = tested on: NCI-H23 lung
OVCAR-4 ovarian = tested on: OVCAR-4 ovarian
UACC-257 melanoma = tested on: UACC-257 melanoma
PC-3 prostate = tested on: PC-3 prostate
T-47D breast = tested on: T-47D breast

| Structure (SMILES) | TGI (UACC-62 melanoma) [µM] | TGI (SNB-19 CNS) [µM] | TGI (CCRF-CEM leukemia) [µM] | TGI (IGROV1 ovarian) [µM] | TGI (LOX IMVI melanoma) [µM] | TGI (MALME-3M melanoma) [µM] | TGI (EKVX NSCLC) [µM] | TGI (SK-MEL-2 melanoma) [µM] | TGI (OVCAR-5 ovarian) [µM] | TGI (MOLT-4 leukemia) [µM] | TGI (ACHN renal) [µM] | TGI (SF-295 CNS) [µM] | TGI (SR leukemia) [µM] | TGI (SF-268 CNS) [µM] | TGI (SK-MEL-5 melanoma) [µM] | TGI (NCI-H23 lung) [µM] | TGI (OVCAR-4 ovarian) [µM] | TGI (UACC-257 melanoma) [µM] | TGI (PC-3 prostate) [µM] | TGI (T-47D breast) [µM] |
| --- | --- | --- | --- | --- | --- | --- | --- | --- | --- | --- | --- | --- | --- | --- | --- | --- | --- | --- | --- | --- |
| O=C1CCC(=O)N1Cc1ccccc1N=[N+]([O-])c1ccccc1CN1C(=O)CCC1=O | > 100 | > 100 | > 100 | > 100 | > 100 | > 100 | > 100 | > 100 | > 100 | > 100 | > 100 | > 100 | > 100 | > 100 | > 100 | > 100 | > 100 | – | – | – |
| O=C(COc1ccc(OCC(=O)N2C(=O)CSC2=Nc2ccccc2)cc1)N1C(=O)CSC1=Nc1ccccc1 | 36 | > 100 | – | 82.8 | – | 86.2 | > 100 | > 100 | 91.9 | > 100 | > 100 | > 100 | – | > 100 | 33.3 | > 100 | > 100 | > 100 | > 100 | – |
| CCCCc1c2c(nc3c1CCCC3O)CCCC2 (stereo not given) | > 100 | > 100 | > 100 | > 100 | – | > 100 | > 100 | > 100 | > 100 | > 100 | > 100 | > 100 | > 100 | > 100 | > 100 | > 100 | > 100 | > 100 | > 100 | – |
| O=C(NC(CS)C(=O)O)c1cccc2c(=O)c3ccccc3[nH]c12 (stereo not given) | > 100 | > 100 | – | > 100 | > 100 | > 100 | > 100 | > 100 | > 100 | > 100 | > 100 | > 100 | > 100 | > 100 | > 100 | > 100 | > 100 | – | > 100 | – |
| CC(=O)OC1COC(Nc2ccc(C(C)=O)cc2)C(OC(C)=O)C1OC(C)=O (stereo not given) | > 100 | > 100 | > 100 | > 100 | > 100 | > 100 | > 100 | > 100 | – | > 100 | > 100 | > 100 | > 100 | > 100 | > 100 | > 100 | > 100 | > 100 | – | – |
| Cn1nc2ccc3nccc(N4CCN(CCO)CC4)c3c2n1 | > 100 | > 100 | > 100 | > 100 | – | > 100 | – | > 100 | > 100 | > 100 | > 100 | > 100 | – | > 100 | > 100 | > 100 | > 100 | > 100 | > 100 | > 100 |
| COc1cc(C)c(/C=C/C(=O)N2C(=O)OC[C@@H]2c2ccccc2)c(C)c1 | – | > 100 | > 100 | > 100 | > 100 | > 100 | > 100 | > 100 | > 100 | 85.8 | > 100 | > 100 | – | > 100 | > 100 | > 100 | > 100 | > 100 | > 100 | 74.1 |
| Nc1c2c(=O)[nH]c(=O)c2c(N)c2c(=O)c3ccccc3c(=O)c12 | 3.25 | > 57.4 | > 26.7 | 10.8 | – | 0.581 | 9.55 | 6.2 | 3.42 | > 26.4 | 9.79 | 3.07 | – | 15.5 | 0.394 | 3.17 | 3.39 | 3.17 | > 36.6 | > 49.6 |
| Cc1nc2ccc(S(=O)(=O)Nc3ccccc3)cc2c(=O)n1NC(=O)CNc1ccccc1 | > 100 | > 100 | > 100 | > 100 | > 100 | > 100 | > 100 | > 100 | > 100 | > 100 | > 100 | > 100 | > 100 | > 100 | – | > 100 | > 100 | > 100 | > 100 | – |
| NC(=S)N/N=C(\Cc1nc2ccc(Cl)cc2[nH]c1=O)C(=O)Nc1ccc(Cl)cc1 | > 100 | > 100 | > 100 | > 100 | > 100 | – | > 100 | > 100 | > 100 | > 100 | > 100 | > 100 | – | > 100 | > 100 | > 100 | > 100 | > 100 | > 100 | – |
| c1ccc(Cc2nc(Cc3n[nH]c(Cc4ccccc4)n3)n[nH]2)cc1 | > 100 | > 100 | > 100 | > 100 | > 100 | – | > 100 | > 100 | > 100 | > 100 | > 100 | > 100 | > 100 | > 100 | > 100 | > 100 | > 100 | > 100 | > 100 | – |
| COc1ccc(C(=O)Cc2c(C(=O)c3ccccc3)c3ccccc3n2C(=O)c2ccccc2)cc1 | > 100 | > 100 | > 100 | > 100 | – | > 100 | – | > 100 | > 100 | > 100 | > 100 | > 100 | > 100 | > 100 | 64.3 | > 100 | > 100 | > 100 | – | – |
| Cc1ccc2c(=O)c3cccc(CC(=O)O)c3[nH]c2c1C | > 100 | > 100 | > 100 | > 100 | > 100 | > 100 | > 100 | – | – | > 100 | > 100 | > 100 | > 100 | 90.5 | > 100 | > 100 | > 100 | > 100 | > 100 | – |
| Nc1ccc2nc(Nc3ccc(F)cc3)cnc2c1 | – | > 100 | > 100 | – | > 100 | > 100 | > 100 | > 100 | > 100 | > 100 | > 100 | > 100 | > 100 | > 100 | > 100 | – | > 100 | > 100 | – | – |
| Clc1ccc2c(c1)C1C(CO2)C(c2ccccc2)=NN1c1ccccc1 (stereo not given) | – | > 100 | 99.1 | > 100 | – | > 100 | 68.6 | 75.4 | > 100 | 62.6 | > 100 | > 100 | – | > 100 | – | 99.8 | – | > 100 | – | – |
| CCN=C(NNc1ccc([N+](=O)[O-])cc1)P(=O)(OC(C)C)OC(C)C | > 100 | > 100 | > 100 | – | > 100 | > 100 | > 100 | > 100 | > 100 | > 100 | > 100 | – | > 100 | > 100 | > 100 | > 100 | > 100 | > 100 | – | – |
| O=C1SS(=O)c2ccccc21 (stereo not given) | > 100 | > 100 | > 100 | > 100 | > 100 | > 100 | > 100 | > 100 | > 100 | > 100 | > 100 | > 100 | > 100 | – | > 100 | > 100 | > 100 | > 100 | > 100 | – |
| COC(=O)N1CCc2c(nc(N(C)CCO)[nH]c2=O)C1 | > 100 | > 100 | > 100 | > 100 | > 100 | > 100 | > 100 | > 100 | > 100 | > 100 | > 100 | > 100 | > 100 | > 100 | > 100 | > 100 | – | > 100 | – | – |
| [O-][n+]1onc2c1CCC(=N\O)/C2=N/Nc1ccccc1 | > 100 | > 100 | > 100 | > 100 | > 100 | > 100 | > 100 | > 100 | > 100 | > 100 | > 100 | > 100 | > 100 | > 100 | > 100 | > 100 | > 100 | > 100 | > 100 | – |
| COc1cc(C)c2c(=O)c3ccccc3n(C)c2c1 | 39.2 | 98.6 | 75.4 | 89.8 | 34.4 | 73.2 | 91.9 | 78.3 | > 100 | > 100 | 55.7 | 34.9 | 43 | 95.9 | – | 77 | 45.6 | 77 | 78.2 | – |
| NC(=O)C(N)=O | > 100 | > 100 | > 100 | – | > 100 | > 100 | > 100 | > 100 | > 100 | > 100 | > 100 | > 100 | > 100 | > 100 | > 100 | > 100 | – | > 100 | – | – |
| O=C1C=C(Sc2ccccc2)c2nccc3c2c1nc1ccccc13 | 29.2 | > 100 | 12.3 | 23.9 | 28.6 | 30 | 41 | 27.3 | > 100 | 23.5 | 54.8 | > 100 | 25.5 | 26.7 | – | 73.2 | 31.4 | 30.6 | 26.2 | – |
| CSc1nc(Cl)c(Br)c(Sc2nc(N)nc3nc[nH]c23)n1 | 14.2 | 30.2 | 9.38 | 28.2 | – | 26.4 | – | 16.9 | 24.1 | 18.9 | 30.3 | 17.7 | 14.1 | 14.9 | 26.4 | 24 | 23.3 | 30 | – | – |
| CNC(=O)c1n[nH]nc1Sc1c([N+](=O)[O-])ncn1C | > 100 | > 100 | > 100 | > 100 | > 100 | – | > 100 | > 100 | > 100 | > 100 | > 100 | > 100 | – | > 100 | > 100 | > 100 | > 100 | > 100 | > 100 | > 100 |
| N#Cc1c(O)c(N=Nc2ccccc2F)c(=O)n2c1[nH]c1ccccc12 | > 100 | > 100 | > 100 | > 100 | > 100 | > 100 | > 100 | 57 | > 100 | – | > 100 | > 100 | – | > 100 | > 100 | > 100 | > 100 | > 100 | > 100 | – |
| CC(=O)NC(C)(C)C1CC=C(C)CC1 (stereo not given) | > 100 | > 100 | > 100 | > 100 | > 100 | > 100 | > 100 | – | > 100 | > 100 | > 100 | > 100 | > 100 | > 100 | > 100 | > 100 | > 100 | > 100 | > 100 | – |
| CN(C(=O)C12C3C4C1C1C4(C(=O)C45C6C7C4C4C5C6C74C)C3C12C)C(C)(C)C (stereo not given) | > 100 | > 100 | > 100 | > 100 | > 100 | > 100 | > 100 | > 100 | > 100 | > 100 | > 100 | > 100 | > 100 | > 100 | 81.7 | > 100 | – | > 100 | – | – |
